For 33 compounds, EC50 results are on record in patent US10351547B2, “Somatostatin modulators and uses thereof” (priority 2016, dated 2019).

Some results are limits rather than exact numbers.

Sequence of human SSTR2 (P30874 whole entry): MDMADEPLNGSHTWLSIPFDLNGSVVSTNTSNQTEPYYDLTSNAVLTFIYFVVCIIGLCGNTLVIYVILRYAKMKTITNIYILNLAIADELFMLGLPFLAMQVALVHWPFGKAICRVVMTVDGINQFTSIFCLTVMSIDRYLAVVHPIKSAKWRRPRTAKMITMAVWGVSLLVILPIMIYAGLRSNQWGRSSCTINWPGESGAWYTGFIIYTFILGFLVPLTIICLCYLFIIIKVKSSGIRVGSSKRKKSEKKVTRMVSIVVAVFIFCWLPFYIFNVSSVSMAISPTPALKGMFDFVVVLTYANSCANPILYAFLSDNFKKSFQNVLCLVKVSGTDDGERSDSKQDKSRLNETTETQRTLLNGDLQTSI

The first assay concerns the target human SSTR2 (Homo sapiens (Human), UniProt P30874). Kind of assay: Human SSTR2 intracellular cAMP functional assay for agonists (HTRF). The class given is cell-based.
Settings: not given
The essentials: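 Cells bearing human SSTR2 exposed to compound for 20 minutes at 37 °C; after lysis, cAMP measured by time-resolved fluorescence (HTRF) and converted via a standard curve. EC50 calculated from cAMP versus compound concentration.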
(In TR-FRET formats the signal depends on donor and acceptor labels being close together.)
What is called EC50 is the concentration that produces a half-maximal response. In turn, `CO/N=C/c1cccc(-c2ccc3ncc(-c4cc(F)cc(F)c4)c(N4CCC(N)CC4)c3c2)c1O` [2-81, 2-[4-(4-aminopiperidin-1-yl)-3-(3,5-difluorophenyl)quinolin-6-yl]-6-methoxyiminomethyl-phenol] returned an EC50 of under 10 nM.

The compound `CC[C@H](N)C1CN(c2c(-c3cc(C)cc(F)c3)cnc3ccc(-c4cc(F)cc(C#N)c4O)cc23)C1` [2-82, 3-(4-{3-[(1S)-1-aminopropyl]azetidin-1-yl}-3-(3-fluoro-5-methylphenyl)quinolin-6-yl)-5-fluoro-2-hydroxybenzonitrile] had an EC50 of 10 to 100 nM.

The compound `CS(=O)(=O)Nc1c(F)cc(F)cc1-c1ccc2ncc(-c3cc(F)cc(F)c3)c(N3CCC(N)CC3)c2c1` [2-86, N-{2-[4-(4-aminopiperidin-1-yl)-3-(3,5-difluorophenyl)quinolin-6-yl]-4,6-difluorophenyl}methanesulfonamide] displayed an EC50 of 100 to 1000 nM.

Turning to `COCCOCOc1c(C#N)cccc1-c1ccc2ncc(-c3cc(F)cc(F)c3)c(N3CCC(N)CC3)c2c1` [2-87, 3-[4-(4-aminopiperidin-1-yl)-3-(3,5-difluorophenyl)quinolin-6-yl]-2-[(2-methoxyethoxy)methoxy]benzonitrile], the EC50 lay in the range of 10 to 100 nM.

Consider `Cc1cc(F)cc(-c2cnc3ccc(-c4cccc(C(=O)N5CCC5)c4O)cc3c2N2CCC(N)CC2)c1` [2-88, 2-[4-(4-aminopiperidin-1-yl)-3-(3-fluoro-5-methylphenyl)quinolin-6-yl] 6-(azetidine-1-carbonyl)phenol], for which the EC50 was in the range of 10 to 100 nM.

As for `CON=Cc1c(F)cccc1-c1ccc2ncc(-c3cc(F)cc(F)c3)c(N3CCC(N)CC3)c2c1` [2-129, 1-[3-(3,5-difluorophenyl)-6-{3-fluoro-2-[(methoxyimino)methyl]phenyl}quinolin-4-yl]piperidin-4-amine], the EC50 is 10 to 100 nM.

For `NC1CCN(c2c(-c3cc(F)cc(F)c3)cnc3ccc(-c4cccc(C(N)C(F)(F)F)c4)cc23)CC1` (stereo not drawn) [2-132, 1-{6-[3-(1-amino-2,2,2-trifluoroethyl)phenyl]-3-(3,5-difluorophenyl)quinolin-4-yl}piperidin-4-amine], the EC50 fell in the range of 10 to 100 nM.

Take `NC1CCN(c2c(-c3cc(F)cc(F)c3)cnc3ccc(-c4cc(Cl)c5[nH]c(=O)[nH]c5c4)cc23)CC1` [2-141, 6-[4-(4-aminopiperidin-1-yl)-3-(3,5-difluorophenyl)quinolin-6-yl]-4-chloro-2,3-dihydro-1H-1,3-benzodiazol-2-one]: the EC50 lay within 10 to 100 nM.

Consider `N#Cc1cc(Cl)c(F)c(-c2ccc3ncc(-c4cc(F)cc(F)c4)c(N4CCC(N)CC4)c3c2)c1O` [2-147, 3-[4-(4-aminopiperidin-1-yl)-3-(3,5-difluorophenyl)quinolin-6-yl]-5-chloro-4-fluoro-2-hydroxybenzonitrile], for which the EC50 was in the range of 10 to 100 nM.

The same assay, now with this note: CHO-K1 cells stably expressing human SSTR2; NKH477-stimulated cAMP; read-out: EC50 (inhibition of cAMP activities via human SST2R).
As for `O=c1[nH]c2cc(-c3ccc4ncc(-c5cc(F)cc(F)c5)c(N5CC[C@H]6NCCO[C@@H]6C5)c4c3)cc(F)c2[nH]1` [2-80, trans-6-[3-(3,5-difluorophenyl)-4-{octahydro-1H-pyrido[3,4-b]morpholin-6-yl}quinolin-6-yl]-4-fluoro-2,3-dihydro-1H-1,3-benzodiazol-2-one], the EC50 is under 10 nM.

As for `COC(=O)Nc1c(F)cc(F)cc1-c1ccc2ncc(-c3cc(F)cc(F)c3)c(N3CCC(N)CC3)c2c1` [2-83, methyl N-{2-[4-(4-aminopiperidin-1-yl)-3-(3,5-difluorophenyl)quinolin-6-yl]-4,6-difluorophenyl}carbamate], the EC50 was under 10 nM.

In the case of `COCOc1c(C#N)cccc1-c1ccc2ncc(-c3cc(F)cc(F)c3)c(N3CC[C@@H](N)[C@H](OC)C3)c2c1` [2-84], the EC50 was under 10 nM.

As to `NC(=O)c1cccc(-c2ccc3ncc(-c4cc(F)cc(F)c4)c(N4CC[C@H]5NCCO[C@@H]5C4)c3c2)n1` [2-85, trans-6-[3-(3,5-difluorophenyl)-4-{octahydro-1H-pyrido[3,4-b]morpholin-6-yl}quinolin-6-yl]pyridine-2-carboxamide], the EC50 was under 10 nM.

In the case of `N#Cc1cc(F)c(F)c(-c2ccc3ncc(-c4cc(F)cc(F)c4)c(N4CCC(N)CC4)c3c2)c1O` [2-99, 3-[4-(4-aminopiperidin-1-yl)-3-(3,5-difluorophenyl)quinolin-6-yl]-4,5-difluoro-2-hydroxybenzonitrile], the concentration for a half-maximal effect (EC50) was under 10 nM.

For `CON=Cc1cccc(-c2ccc3ncc(-c4cc(C)cc(F)c4)c(N4CCC(N)CC4)c3c2)c1O` [2-115, 2-[4-(4-aminopiperidin-1-yl)-3-(3-fluoro-5-methylphenyl)quinolin-6-yl]-6-[(methoxyimino)methyl]phenol], the EC50 is under 10 nM.

Regarding `CON=Cc1cc(F)cc(-c2ccc3ncc(-c4cc(C)cc(F)c4)c(N4CCC(N)CC4)c3c2)c1O` [2-116, 2-[4-(4-aminopiperidin-1-yl)-3-(3-fluoro-5-methylphenyl)quinolin-6-yl]-4-fluoro-6-[(methoxyimino)methyl]phenol], the EC50 is under 10 nM.

`COC(=O)Nc1c(F)cc(F)c(F)c1-c1ccc2ncc(-c3cc(F)cc(F)c3)c(N3CCC(N)CC3)c2c1` [2-123, methyl N-{2-[4-(4-aminopiperidin-1-yl)-3-(3,5-difluorophenyl)quinolin-6-yl]-3,4,6-trifluorophenyl}carbamate]: the EC50 is under 10 nM.

Consider `COC(=O)Nc1c(C#N)cncc1-c1ccc2ncc(-c3cc(F)cc(F)c3)c(N3CCC(N)CC3)c2c1` [2-125, methyl N-{3-[4-(4-aminopiperidin-1-yl)-3-(3,5-difluorophenyl)quinolin-6-yl]-5-cyanopyridin-4-yl}carbamate], for which the EC50 was under 10 nM.

As for `NC1CCN(c2c(-c3cc(F)cc(F)c3)cnc3ccc(-c4cccc(F)c4C=NO)cc23)CC1` [2-126, 1-[3-(3,5-difluorophenyl)-6-{3-fluoro-2-[(hydroxyimino)methyl]phenyl}quinolin-4-yl]piperidin-4-amine], the EC50 was under 10 nM.

Regarding `NC1CCN(c2c(-c3cc(F)cc(F)c3)cnc3ccc(-c4c(O)c(Cl)cc(F)c4F)cc23)CC1` [2-134, 2-[4-(4-aminopiperidin-1-yl)-3-(3,5-difluorophenyl)quinolin-6-yl]-6-chloro-3,4-difluorophenol], the half-maximal effective concentration (EC50) is under 10 nM.

Turning to `CONC(=O)Nc1c(F)cc(F)cc1-c1ccc2ncc(-c3cc(F)cc(F)c3)c(N3CCC(N)CC3)c2c1` [2-139, 1-{2-[4-(4-aminopiperidin-1-yl)-3-(3,5-difluorophenyl)quinolin-6-yl]-4,6-difluorophenyl}-3-methoxyurea], the EC50 was under 10 nM.

In the case of `NC1CCN(c2c(-c3cc(F)cc(F)c3)cnc3ccc(-c4ccc5oc(=O)[nH]c5c4)cc23)CC1` [2-142, 5-[4-(4-aminopiperidin-1-yl)-3-(3,5-difluorophenyl)quinolin-6-yl]-2,3-dihydro-1,3-benzoxazol-2-one], the EC50 was under 10 nM.

Regarding `N#Cc1cccc(-c2ccc3ncc(-c4cc(F)cc(F)c4)c(N4CC[C@@H](N)[C@H](C(=O)O)C4)c3c2)c1O` [2-145], the EC50 lay in the range of 100 to 1000 nM.

With `COC(=O)Nc1c(C#N)cccc1-c1ccc2ncc(-c3cc(F)cc(F)c3)c(N3CCC(N)CC3)c2c1` [2-148, methyl N-{2-[4-(4-aminopiperidin-1-yl)-3-(3,5-difluorophenyl)quinolin-6-yl]-6-cyanophenyl}carbamate], the EC50 is under 10 nM.

Regarding `NC1CCN(c2c(-c3cc(F)cc(F)c3)cnc3ccc(-c4c(O)c(F)cc(F)c4F)cc23)CC1` [2-150, 2-[4-(4-aminopiperidin-1-yl)-3-(3,5-difluorophenyl)quinolin-6-yl]-3,4,6-trifluorophenol], the EC50 is under 10 nM.

On to `NC1CCN(c2c(-c3cc(F)cc(F)c3)cnc3ccc(-c4cncc(F)c4C=NO)cc23)CC1` [2-152, 1-[3-(3,5-difluorophenyl)-6-{5-fluoro-4-[(hydroxyimino)methyl]pyridin-3-yl}quinolin-4-yl]piperidin-4-amine], for which the concentration giving a half-maximal response (EC50) was under 10 nM.

In the case of `CONC(=O)Nc1c(F)cc(F)cc1-c1ccc2ncc(-c3cc(F)cc(OC)c3)c(N3CCC(N)CC3)c2c1` [2-164, 1-{2-[4-(4-aminopiperidin-1-yl)-3-(3-fluoro-5-methoxyphenyl)quinolin-6-yl]-4,6-difluorophenyl}-3-methoxyurea], the EC50 is under 10 nM.

Turning to `COC(=O)Nc1c(F)cc(F)cc1-c1ccc2ncc(-c3cc(F)cc(OC)c3)c(N3CCC(N)CC3)c2c1` [2-165, methyl N-{2-[4-(4-aminopiperidin-1-yl)-3-(3-fluoro-5-methoxyphenyl)quinolin-6-yl]-4,6-difluorophenyl}carbamate], the EC50 is under 10 nM.

For `COc1cc(F)cc(-c2cnc3ccc(-c4cccc(F)c4C=NO)cc3c2N2CCC(N)CC2)c1` [2-166, 1-(6-{3-fluoro-2-[(hydroxyimino)methyl]phenyl}-3-(3-fluoro-5-methoxyphenyl)quinolin-4-yl)piperidin-4-amine], the EC50 is under 10 nM.

As to `COC(=O)Nc1c(C#N)cccc1-c1ccc2ncc(-c3cc(F)cc(OC)c3)c(N3CCC(N)CC3)c2c1` [2-167, methyl N-{2-[4-(4-aminopiperidin-1-yl)-3-(3-fluoro-5-methoxyphenyl)quinolin-6-yl]-6-cyanophenyl}carbamate], the EC50 was under 10 nM.

Take `Cc1cc(F)cc(-c2cnc3ccc(-c4cncc(F)c4C=NO)cc3c2N2CCC(N)CC2)c1` [2-168, 1-(6-{5-fluoro-4-[(hydroxyimino)methyl]pyridin-3-yl}-3-(3-fluoro-5-methylphenyl)quinolin-4-yl)piperidin-4-amine]: the EC50 was under 10 nM.

As to `Cc1cc(F)cc(-c2cnc3ccc(-c4cncc(F)c4N)cc3c2N2CCC(N)CC2)c1` [2-169, 3-[4-(4-aminopiperidin-1-yl)-3-(3-fluoro-5-methylphenyl)quinolin-6-yl]-5-fluoropyridin-4-amine], the EC50 was under 10 nM.

With `CONC(=O)Nc1c(F)cncc1-c1ccc2ncc(-c3cc(C)cc(F)c3)c(N3CCC(N)CC3)c2c1` [2-172, 1-{3-[4-(4-aminopiperidin-1-yl)-3-(3-fluoro-5-methylphenyl)quinolin-6-yl]-5-fluoropyridin-4-yl}-3-methoxyurea], the EC50 is under 10 nM.
